Where only a bound is given, the exact number is not on record here.

For this assay, the system named is Glomerella lagenarium (Colletotrichum lagenarium). The assay can be described thus: Fungicidal activity against Glomerella lagenarium (Colletotrichum lagenarium) liquid culture / cucumber / preventative (anthracnose). The class given is cell-based. As to conditions: Colletotrichum orbiculare; 20 ppm in the applied formulation; liquid culture (PDB), growth inhibition measured photometrically after 3 to 4 days; compared to untreated control; read-out: disease control. The method, boiled down:
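Photometric read-out of fungal growth after 2–7 days, expressed as percent antifungal activity versus untreated check. Cryo-stored conidia in PDB; compound at 20 ppm; dark, 24 °C, 96% RH.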

Consider `COCC(=O)N(Cc1ccc(-c2noc(C(F)(F)F)n2)cc1)OCc1ccc(Cl)cc1` [Compound 1.551, N-[(4-chlorophenyl)-methoxy]-2-methoxy-N-[[4-[5-(trifluoromethyl)-1,2,4-oxadiazol-3-yl]phenyl]methyl]-acetamide], for which the inhibition of growth at 20 ppm was not below 80%.

For the molecule `CON(Cc1ccc(-c2noc(C(F)(F)F)n2)cc1)C(=O)c1cc2c(cc1Br)OCO2` [Compound 1.55, 6-bromo-N-methoxy-N-[[4-[5-(trifluoromethyl)-1,2,4-oxadiazol-3-yl]phenyl]methyl]-1,3-benzoxlioxole-5-carboxamide], the inhibition of growth at 20 ppm is not below 80%. Take `C=C(C)C(=O)N(Cc1ccc(-c2noc(C(F)(F)F)n2)cc1)OCCC` [Compound 1.304, 2-methyl-N-propoxy-N-[[4-[5-(trifluoromethyl)-1,2,4-oxadiazol-3-yl]phenyl]methyl]-prop-2-enamide]: the inhibition of growth at 20 ppm is not below 80%.

Turning to `CCCON(Cc1ccc(-c2noc(C(F)(F)F)n2)cc1)C(=O)CCC` [Compound 1.288, N-propoxy-N-[[4-[5-(trifluoromethyl)-1,2,4-oxadiazol-3-yl]phenyl]methyl]-butanamide], the inhibition of growth at 20 ppm is not below 80%. For `CC=CC(=O)N(Cc1ccc(-c2noc(C(F)(F)F)n2)cc1)OCCC` [Compound 1.285, N-propoxy-N-[[4-[5-(trifluoromethyl)-1,2,4-oxadiazol-3-yl]phenyl]methyl]but-2-enamide], the inhibition of growth at 20 ppm was not below 80%. Regarding `CON(Cc1ccc(-c2noc(C(F)(F)F)n2)cc1)C(=O)OCC(C)C` [Compound 2.8, isobutyl N-methoxy-N-[[4-[5-(trifluoromethyl)-1,2,4-oxadiazol-3-yl]phenyl]methyl]-carbamate], the inhibition of growth at 20 ppm is not below 80%. Turning to `CC1CC1C(=O)N(Cc1ccc(-c2noc(C(F)(F)F)n2)cc1)CC1CCCO1` (centres unmarked) [Compound 1.428, 2-methyl-N-(tetrahydrofuran-2-ylmethyl)-N-[[4-[5-(trifluoromethyl)-1,2,4-oxadiazol-3-yl]phenyl]methyl]-cyclopropane-carboxamide], the inhibition of growth at 20 ppm is not below 80%.

For `CCCCC(=O)N(Cc1ccc(-c2noc(C(F)(F)F)n2)cc1)C(C)CC` (centres unmarked) [Compound 1.409, N-sec-butyl-N-[[4-[5-(trifluoromethyl)-1,2,4-oxadiazol-3-yl]phenyl]methyl]-pentanamide], the inhibition of growth at 20 ppm was not below 80%.

For the molecule `O=C(N(Cc1ccc(-c2noc(C(F)(F)F)n2)cc1)C1CC1)C1(c2ccccc2)CC1` [Compound 1.96, N-cyclopropyl-1-phenyl-N-[[4-[5-(trifluoromethyl)-1,2,4-oxadiazol-3-yl]phenyl]methyl]-cyclopropane-carboxamide], the inhibition of growth at 20 ppm is not below 80%.

Regarding `CCCON(Cc1ccc(-c2noc(C(F)(F)F)n2)cc1)C(=O)COCC` [Compound 1.297, 2-ethoxy-N-propoxy-N-[[4-[5-(trifluoromethyl)-1,2.4-oxadiazol-3-yl]phenyl]methyl]-acetamide], the inhibition of growth at 20 ppm is not below 80%. For `CC(C)(C)CC(=O)N(Cc1ccc(-c2noc(C(F)(F)F)n2)cc1)CC1CCCO1` (centres unmarked) [Compound 1.429, 3,3-dimethyl-N-(tetrahydrofuran-2-ylmethyl)-N-[[4-[5-(trifluoromethyl)-1,2,4-oxadiazol-3-yl]phenyl]methyl]-butanamide] the value was not below 80%; for `CCCC(C)(C)C(=O)N(Cc1ccc(-c2noc(C(F)(F)F)n2)cc1)C1CC1` [Compound 1.85, N-cyclopropyl-2,2-dimethyl-N-[[4-[5-(trifluoromethyl)-1,2,4-oxadiazol-3-yl]phenyl]methyl]-pentanamide], not below 80%; for `O=C(C1CC1F)N(Cc1ccc(-c2noc(C(F)(F)F)n2)cc1)OCC=C(Cl)Cl` (centres unmarked) [Compound 1.545, N-(3,3-dichloroallyloxy)-2-fluoro-N-[[4-[5-(trifluoromethyl)-1,2,4-oxadiazol-3-yl]phenyl]methyl]-cyclopropane-carboxamide], not below 80%. In the case of `CC1CC1C(=O)N(Cc1ccc(-c2noc(C(F)(F)F)n2)cc1)OCC=C(Cl)Cl` (centres unmarked) [Compound 1.536, N-(3,3-dichloroallyloxy)-2-methyl-N-[[4-[5-(trifluoromethyl)-1,2,4-oxadiazol-3-yl]phenyl]methyl]-cyclopropane-carboxamide], the inhibition of growth at 20 ppm is not below 80%. For `CC=C(C)C(=O)N(OC)C(C)c1ccc(-c2noc(C(F)(F)F)n2)cc1` (centres unmarked) [Compound 1.255, N-methoxy-2-methyl-N-[1-[4-[5-(trifluoromethyl)-1,2,4-oxadiazol-3-yl]phenyl]ethyl]but-2-enamide] the value was not below 80%; for `O=C(C1CC1c1ccccc1)N(Cc1ccc(-c2noc(C(F)(F)F)n2)cc1)C1CC1` (centres unmarked) [Compound 1.98, N-cyclopropyl-2-phenyl-N-[[4-[5-(trifluoromethyl)-1,2,4-oxadiazol-3-yl]phenyl]methyl]-cyclopropane-carboxamide], not below 80%. On to `CCCON(Cc1ccc(-c2noc(C(F)(F)F)n2)cc1)C(=O)C1(C)CC1` [Compound 1.302, 1-methyl-N-propoxy-N-[[4-[5-(trifluoromethyl)-1,2,4-oxadiazol-3-yl]phenyl]methyl]-cyclopropane-carboxamide], for which the inhibition of growth at 20 ppm is not below 80%. For `O=C(C1CC1(Cl)Cl)N(Cc1ccc(-c2noc(C(F)(F)F)n2)cc1)CC1CC1` (centres unmarked) [Compound 1.232, 2.2-dichloro-N-(cyclopropylmethyl)-N-[[4-[5-(trifluoromethyl)-1,2,4-oxadiazol-3-yl]phenyl]methyl]-cyclopropane-carboxamide] the value was not below 80%; for `C#CCC(NS(=O)(=O)CC)C(=O)N(Cc1ccc(-c2noc(C(F)(F)F)n2)cc1)CC1CC1` (centres unmarked) [Compound 1.239, N-(cyclopropylmethyl)-2-(ethylsulfonylamino)-N-[[4-[5-(trifluoromethyl)-1,2,4-oxadiazol-3-yl]phenyl]methyl]-pent-4-ynamide], not below 80%. For `CCCON(Cc1ccc(-c2noc(C(F)(F)F)n2)cc1)C(=O)CC` [Compound 1.303, N-propoxy-N-[[4-[5-(trifluoromethyl)-1,2,4-oxadiazol-3-yl]phenyl]methyl]-propanamide], the inhibition of growth at 20 ppm is not below 80%.

Consider `COC(C)C(=O)N(Cc1ccc(-c2noc(C(F)(F)F)n2)cc1)OCc1ccc(Cl)cc1` (centres unmarked) [Compound 1.559, N-[(4-chlorophenyl)-methoxy]-2-methoxy-N-[[4-[5-(trifluoromethyl)-1,2,4-oxadiazol-3-yl]phenyl)methyl]-propanamide], for which the inhibition of growth at 20 ppm was not below 80%. To `CCCON(Cc1ccc(-c2noc(C(F)(F)F)n2)cc1)C(=O)CCCOC` [Compound 1.321, 4-methoxy-N-propoxy-N-[[4-[5-(trifluoromethyl)-1,2,4-oxadiazol-3-yl]phenyl]methyl]-butanamide] belongs not below 80%; to `C#CC(=O)N(OC)C(C)c1ccc(-c2noc(C(F)(F)F)n2)cc1` (centres unmarked) [Compound 1.269, N-methoxy-N-[1-[4-[5-(trifluoromethyl)-1,2,4-oxadiazol-3-yl]phenyl]ethyl]prop-2-ynamide], not below 80%. For `O=C(C1CCCO1)N(Cc1ccc(-c2noc(C(F)(F)F)n2)cc1)OCc1ccc(Cl)cc1` (centres unmarked) [Compound 1.557, N-[(4-chlorophenyl)-methoxy]-N-[[4-[5-(trifluoromethyl)-1,2,4-oxadiazol-3-yl]phenyl]methyl]-tetrahydrofuran-2-carboxamide] the value was not below 80%. For `CON(Cc1ccc(-c2noc(C(F)(F)F)n2)cc1)C(=O)OCCCCCl` [Compound 2.13, 4-chlorobutyl N-methoxy-N-[[4-[5-(trifluoromethyl)-1,2,4-oxadiazol-3-yl]phenyl]methyl]-carbamate] the value was not below 80%; for `CON(Cc1ccc(-c2noc(C(F)(F)F)n2)cc1)C(=O)CCc1ccc(Cl)cc1` [Compound 1.18, 3-(4-chlorophenyl)-N-methoxy-N-[[4-[5-(trifluoromethyl)-1,2,4-oxadiazol-3-yl]phenyl]methyl]-propanamide], not below 80%. With `CCC(COC)C(=O)N(Cc1ccc(-c2noc(C(F)(F)F)n2)cc1)C(C)CC` (centres unmarked) [Compound 1.397, 2-(methoxymethyl)-N-sec-butyl-N-[[4-[5-(trifluoromethyl)-1,2,4-oxadiazol-3-yl]phenyl]methyl]-butanamide], the inhibition of growth at 20 ppm was not below 80%. Consider `C=CC(=O)N(Cc1ccc(-c2noc(C(F)(F)F)n2)cc1)OCCC` [Compound 1.301, N-propoxy-N-[[4-[5-(trifluoromethyl)-1,2,4-oxadiazol-3-yl]phenyl]methyl]-prop-2-enamide], for which the inhibition of growth at 20 ppm was not below 80%. To `CON(Cc1ccc(-c2noc(C(F)(F)F)n2)cc1)C(=O)C(F)(F)F` [Compound 1.780, 2,2,2-trifluoro-N-methoxy-N-[[4-[5-(trifluoromethyl)-1,2,4-oxadiazol-3-yl]phenyl]methyl]-acetamide] belongs not below 80%; to `CCCON(Cc1ccc(-c2noc(C(F)(F)F)n2)cc1)C(=O)C(C)C` [Compound 1.284, 2-methyl-N-propoxy-N-[[4-[5-(trifluoromethyl)-1,2,4-oxadiazol-3-yl]phenyl]methyl]-propanamide], not below 80%. Consider `CON(C(=O)C1(C)CC1)C(C)c1ccc(-c2noc(C(F)(F)F)n2)cc1` (centres unmarked) [Compound 1.268, N-methoxy-1-methyl-N-[1-[4-[5-(trifluoromethyl)-1,2,4-oxadiazol-3-yl]phenyl]ethyl]-cyclopropane-carboxamide], for which the inhibition of growth at 20 ppm is not below 80%.

Consider `CC1(C(=O)N(Cc2ccc(-c3noc(C(F)(F)F)n3)cc2)C2CC2)CCCCC1` [Compound 1.108, N-cyclopropyl-1-methyl-N-[[4-[5-(trifluoromethyl)-1,2,4-oxadiazol-3-yl]phenyl]methyl]-cyclohexane-carboxamide], for which the inhibition of growth at 20 ppm is not below 80%.

These data come from patent US11180462B2, “Microbiocidal oxadiazole derivatives” (SYNGENTA PARTICIPATIONS AG, priority 2015, dated 2021).
